Measurements reported in PMC7782552, “Activation of mitochondrial TUFM ameliorates metabolic dysregulation through coordinating autophagy induction” (Communications Biology, 2021).

Biological target: T1, TUFM (mitochondrial elongation factor Tu) (Mus musculus, UniProt Q8BFR5)
T1 construct: endogenous protein in 3T3-L1 cell lysate
Experiment: DARTS (pronase protection) immunoblot, dose-dependent, and DARTS LC-MS/MS in 3T3-L1 lysate
Assay type: biochemical

## COc1ccc(-c2oc3cc(O)cc(O)c3c(=O)c2O)cc1 [Kaem, kaempferide]
  EC50: 14.4 µM
